Legend:
[1] = tested on: anesthetized thoracotomized dog; test: Heart rate lowering and coronary bloodflow increasing effects upon anesthetized thoracotomized dog; format: in vivo; settings: compounds of group (I), 0.3 mg/kg intravenous, anesthetized mongrel; for Coronary bloodflow (CBF): rate of increase in coronary bloodflow: left circumflex branch
Description: Heart Rate Lowering and Coronary Bloodflow Increasing Effects Upon Anesthetized Thoracotomized Dog
The chest of a grown-up mongrel was opened under enflurane inhalation anesthesia. The blood flow of the coronary artery was determined by setting a probe of an electromagnetic bloodflowmeter at its left circumflexbranch, while the heart rate was determined by triggering the wave form of the pressure in its left ventricle and counting it with a tachometer.
The intravenous administration of a test compound (in a dose of 0.3 mg per kg of the weight of the anesthetized mongrel) was carried out by using a catheter inserted into its femoral […].
The effect of increasing the bloodflow of the circumflex branch of the left coronary artery or the heart rate lowering effect was evaluated based on the difference between the bloodflow or the heart rate after the administration and that before the administration according to the following criteria.

[2] = Acute toxicity test (intravenous injection) using a mouse; settings: in vivo
Source text: The representative compounds of the present invention were examined by an ordinary acute toxicity test (intravenous injection) using a mouse to obtain the results shown in Table 4.

SMILES | Heart rate (HR): rate of reduction in heart rate [1] | Coronary bloodflow (CBF): rate of increase in coronary bloodflow [1] | LD50 [2] [mg/kg]
CN(CCCNC(=O)C/C=C/c1ccc(-n2ccnc2)cc1)CCc1ccc2c(c1)OCO2 [Compound K, (E)-N-[3-((N'-(2-(3,4-Methylenedioxyphenyl)-ethyl)-N'-methyl)amino)propyl]-4-(4-(1H-imidazol-1-yl)phenyl)-3-butenamide] | ++ (11-20%) | + (1-100%) | 
COc1ccc(CCN(C)CCCNC(=O)C/C=C/c2ccc(-n3cnc(C)c3)cc2)cc1OC [Compound L, (E)-N-[3-((N'-(2-(3,4-Dimethoxyphenyl)ethyl)-N'-methyl)amino)propyl]-4-(4-(4-methyl-1H-imidazol-1-yl)phenyl)-3-butenamide] | + (1-10%) | + (1-100%) | 92
COc1ccc(CCN(C)CCCNC(=O)C/C=C/c2ccc(-n3cncn3)cc2)cc1OC [Compound M, (E)-N-[3-((N'-(2-(3,4-Dimethoxyphenyl)ethyl)-N'-methyl)amino)propyl]-4-(4-(1H-1,2,4-triazol-1-yl)phenyl)-3-butenamide] | + (1-10%) | + (1-100%) | 120
